Article PMC8008885 (Journal of Enzyme Inhibition and Medicinal Chemistry, 2021)

System: H3K9me3 occupancy in promoter regions
Assay: H3K9me3-ChIP sequencing of striatal tissue of YAC128 mice
Type: in vivo, mouse
Procedure: ChIP for H3K9me3 binding to DNA was performed using a CHIP assay kit (Santa Cruz, Dallas, TX) as described previously[21]^,[28]. Striatal tissues from WT, vehicle treated YAC128, and APQ-treated YAC128 mice were crossed-linked with 1% formaldehyde for 20 min at room temperature. Lysates were sonicated for 30 s six times using a Bioruptor (Diagenode Inc., Denville, NJ). After centrifugation, the supernatant was diluted in CHIP dilution buffer and incubated overnight at 4 °C with anti-H3K9me3 antibody. Immune complexes were recovered by the addition of 60 µl of salmon sperm DNA/protein A agarose-50% slurry and incubation at 4 °C for 2 h with rotation. Beads were pelleted and washed with low and high salt buffer followed by LiCl buffer (x3). Immune complexes were eluted by incubation with 500 µl of fresh elution buffer (1% SDS, 0.1 M NaHCO3) and 20 µl of 5 M NaCl. DNA was cleaned by the addition of 500 mM EDTA, 1 M Tris, and proteinase K at 66 °C for 4 h. The DNA solution was extracted with a phenol/chloroform/isoamyl alcohol mixture to remove protein contaminants, followed by precipitation with 100% ethanol. After precipitation, the pellet was washed with 70% ethanol and dissolved in 20 µl DW.
The Model-based Analysis of ChIP-Seq algorithm (MACS; v. 1.4.2) was used to identify regions of H3K9me3 enrichment with the default parameters. The peaks that pass a Poisson p values threshold of 0.1 were used for further analyses[28]^,[42]. In order to obtain reliable regions of enrichment, the regions detected in more than two samples were selected and aligned to define the consensus regions using DiffBind R package (v. 2.4.8)[43]. The reads in the consensus regions were counted and DESeq2 was applied to identify DMRs[44]. The DMRs were defined as p values of ≤.05 and only DMRs in promoter region (≤3 K from transcription start site) were selected.
Among the read peaks, a total of H3K9me3-enriched 71735 sites were commonly detected using MACS in WT, vehicle-treated YAC128, and APQ-treated YAC128 mice (using DiffBind R package). The reads were re-counted in the 71,735 sites (using DESeq2) and the H3K9me3-enriched sites in promoter region (≤3 K), with p values ≤.01 were selected. Then the H3K9me3-enriched sites with 1.5-fold higher in vehicle-treated YAC128 compared to WT and 1.5-fold lower in vehicle-treated YAC128 compared to APQ-treated YAC128 were finally selected.

C=CCOc1cccc2nc(N3CCCC3)ccc12 [APQ, 5-allyloxy-2-(pyrrolidin-1-yl)quinoline]
number of targets with 1.5-fold decrease of H3K9me3 occupancy (APQ-treated vs vehicle-treated YAC128 mice): 7060 | H3K9me3 occupancy in the promoter region (–1 k to –3 kb) (APQ-treated vs vehicle-treated YAC128 mice, pie graph analysis): reduced | Fold(YACEi/YAC) H3K9me3 ChIP occupancy (Gripap1, Promoter (1-2kb), chrX_7787762_7788457, APQ-treated YAC vs YAC mice striatum): -2.38 | Fold(YACEi/YAC) (H3K9me3 ChIP peak chr1_71652484_71652752, Apol7d, Promoter (<=1kb)): -3.31 | Fold(YACEi/YAC) (H3K9me3 ChIP peak chr1_131908530_131908816, Nucks1, Promoter (1-2kb)): -4.01 | Fold(YACEi/YAC) (H3K9me3 ChIP peak chr1_153487828_153488249, Dhx9, Promoter (<=1kb)): -2.43 | Fold(YACEi/YAC) (H3K9me3 ChIP peak chr2_5015774_5016013, Mcm10, Promoter (2-3kb)): -3.52 | Fold(YACEi/YAC) (H3K9me3 ChIP peak chr3_35666243_35666969, Gm6639, Promoter (<=1kb)): -3.37 | Fold(YACEi/YAC) (H3K9me3 ChIP peak chr3_38487666_38488045, Ankrd50, Promoter (2-3kb)): -2.49 | Fold(YACEi/YAC) (H3K9me3 ChIP peak chr3_81977204_81977533, Tdo2, Promoter (1-2kb)): -3.71 | Fold(YACEi/YAC) (H3K9me3 ChIP peak chr3_92487863_92488097, Sprr1a, Promoter (1-2kb)): -3.63 | Fold(YACEi/YAC) (H3K9me3 ChIP peak chr3_101112649_101113010, Ptgfrn, Promoter (2-3kb)): -3.89 | Fold(YACEi/YAC) (H3K9me3 ChIP peak chr4_3653408_3653656, 2210414B05Rik, Promoter (2-3kb)): -3.07 | Fold(YACEi/YAC) (H3K9me3 ChIP peak chr4_55418287_55418885, Gm12505, Promoter (<=1kb)): -2.83 | Fold(YACEi/YAC) (H3K9me3 ChIP peak chr4_73631010_73633171, Gm11236, Promoter (2-3kb)): -3.46 | Fold(YACEi/YAC) (H3K9me3 ChIP peak chr4_96141001_96141325, Cyp2j12, Promoter (<=1kb)): -3.49 | Fold(YACEi/YAC) (H3K9me3 ChIP peak chr5_147954155_147954429, Mtus2, Promoter (2-3kb)): -3.24 | Fold(YACEi/YAC) (H3K9me3 ChIP peak chr6_8194240_8194734, Col28a1, Promoter (1-2kb)): -2.03 | Fold(YACEi/YAC) (H3K9me3 ChIP peak chr6_40902902_40903167, Prss58, Promoter (2-3kb)): -3.27 | Fold(YACEi/YAC) (H3K9me3 ChIP peak chr6_52209895_52210445, Hoxa6, Promoter (1-2kb)): -2.02 | Fold(YACEi/YAC) (H3K9me3 ChIP peak chr6_57158878_57159171, Vmn1r12, Promoter (<=1kb)): -3.18 | Fold(YACEi/YAC) (H3K9me3 ChIP peak chr6_82941890_82942092, Sema4f, Promoter (2-3kb)): -3.56 | Fold(YACEi/YAC) (H3K9me3 ChIP peak chr6_88462374_88462646, Ruvbl1, Promoter (2-3kb)): -3.04 | Fold(YACEi/YAC) (H3K9me3 ChIP peak chr6_116583898_116584203, Olfr215, Promoter (<=1kb)): -2.33 | Fold(YACEi/YAC) (H3K9me3 ChIP peak chr7_20869153_20870151, Vmn1r116, Promoter (2-3kb)): -3.02 | Fold(YACEi/YAC) (H3K9me3 ChIP peak chr7_28539372_28539811, Sycn, Promoter (1-2kb)): -2.21 | Fold(YACEi/YAC) (H3K9me3 ChIP peak chr7_30914737_30915034, Mag, Promoter (<=1kb)): -2.46 | Fold(YACEi/YAC) (H3K9me3 ChIP peak chr7_106081077_106081480, Gm8979, Promoter (1-2kb)): -3.34 | Fold(YACEi/YAC) (H3K9me3 ChIP peak chr7_108053741_108053948, Olfr479, Promoter (1-2kb)): -2.28 | Fold(YACEi/YAC) (H3K9me3 ChIP peak chr7_140154755_140155139, Sprn, Promoter (<=1kb)): -2.42 | Fold(YACEi/YAC) (H3K9me3 ChIP peak chr8_67493810_67494076, Nat2, Promoter (<=1kb)): -2.63 | Fold(YACEi/YAC) (H3K9me3 ChIP peak chr9_39238856_39239153, Olfr1537, Promoter (<=1kb)): -2.72 | Fold(YACEi/YAC) (H3K9me3 ChIP peak chr10_75351156_75351507, Gm5779, Promoter (<=1kb)): -3.41 | Fold(YACEi/YAC) (H3K9me3 ChIP peak chr10_78963256_78963630, Olfr1353, Promoter (<=1kb)): -2.79 | Fold(YACEi/YAC) (H3K9me3 ChIP peak chr10_85919134_85919418, Prdm4, Promoter (1-2kb)): -2.28 | Fold(YACEi/YAC) (H3K9me3 ChIP peak chr10_130212472_130212863, Olfr827, Promoter (1-2kb)): -3.69 | Fold(YACEi/YAC) (H3K9me3 ChIP peak chr11_6231887_6232152, Npc1l1, Promoter (1-2kb)): -3.31 | Fold(YACEi/YAC) (H3K9me3 ChIP peak chr11_70351943_70352224, Alox15, Promoter (<=1kb)): -2.33 | Fold(YACEi/YAC) (H3K9me3 ChIP peak chr14_7570803_7571731, Gm3558, Promoter (2-3kb)): -3.02 | Fold(YACEi/YAC) (H3K9me3 ChIP peak chr14_50785599_50785931, Ttc5, Promoter (<=1kb)): -3.3 | Fold(YACEi/YAC) (H3K9me3 ChIP peak chr14_51147689_51148262, Rnase1, Promoter (<=1kb)): -2.5 | Fold(YACEi/YAC) (H3K9me3 ChIP peak chr14_67860151_67860425, Mir6539, Promoter (<=1kb)): -2.31 | Fold(YACEi/YAC) (H3K9me3 ChIP peak chr14_74972279_74972456, Gm4278, Promoter (2-3kb)): -3.57 | Fold(YACEi/YAC) (H3K9me3 ChIP peak chr16_17917614_17917958, Gsc2, Promoter (2-3kb)): -3.59 | Fold(YACEi/YAC) (H3K9me3 ChIP peak chr17_18913933_18914613, Vmn2r97, Promoter (<=1kb)): -3.35 | Fold(YACEi/YAC) (H3K9me3 ChIP peak chr17_33553505_33553673, Myo1f, Promoter (2-3kb)): -3.41 | Fold(YACEi/YAC) (H3K9me3 ChIP peak chr17_37114518_37114958, Olfr92, Promoter (2-3kb)): -2.4 | Fold(YACEi/YAC) (H3K9me3 ChIP peak chr17_37485182_37485483, H2-M2, Promoter (1-2kb)): -3.71 | Fold(YACEi/YAC) (H3K9me3 ChIP peak chr17_47927455_47927829, Foxp4, Promoter (2-3kb)): -2.83 | Fold(YACEi/YAC) (H3K9me3 ChIP peak chr19_24902268_24902717, Foxd4, Promoter (<=1kb)): -2.16 | Fold(YACEi/YAC) (H3K9me3 ChIP peak chrX_5469564_5470151, Mycs, Promoter (<=1kb)): -2.41 | Fold(YACEi/YAC) (H3K9me3 ChIP peak chrX_6399655_6400248, Shroom4, Promoter (<=1kb)): -2.29 | Fold(YACEi/YAC) (H3K9me3 ChIP peak chrX_7571434_7571820, Flicr, Promoter (1-2kb)): -4.01 | Fold(YACEi/YAC) (H3K9me3 ChIP peak chrX_10118097_10118554, Srpx, Promoter (<=1kb)): -2.46 | Fold(YACEi/YAC) (H3K9me3 ChIP peak chrX_10714202_10714657, Mid1ip1, Promoter (2-3kb)): -2.68
